Laboratory results taken from ChEMBL document CHEMBL3351866, “Indole alkaloid glycosides from the aerial parts of Strobilanthes cusia” (2014).
Values after ≈ are worked out from the molar mass of the structure shown. Blank lines part the entries; values can stand above or below the molecule they belong to. Active and inactive are the calls of the source. The calls are words filed in the database; no cut-off is given here.

Tested on: Staphylococcus aureus
Test: Antibacterial activity against Staphylococcus aureus assessed as growth inhibition after 24 hrs by broth microdilution assay
Type: functional

Compound: COc1ccc(CCO[C@@H]2O[C@H](CO)[C@@H](OC(=O)/C=C/c3ccc(O)c(OC)c3)[C@H](O[C@@H]3O[C@@H](C)[C@H](O)[C@@H](O)[C@H]3O)[C@H]2O)cc1O
Activity: inactive

Compound: C[C@@H]1O[C@@H](O[C@@H]2[C@@H](O)[C@H](OCCc3ccc(O)c(O)c3)O[C@H](CO)[C@@H]2OC(=O)/C=C/c2ccc(O)c(O)c2)[C@H](O)[C@H](O)[C@H]1O
Activity: inactive

MIC: 62.5 µM (≈ 26.5 µg/mL)
Compound: O=C1/C(=C2/C(=O)N([C@@H]3O[C@H](CO)[C@@H](O)[C@H](O)[C@H]3O)c3ccccc32)Nc2ccccc21

Compound: COC(=O)c1ccccc1NC(=O)c1[nH]c2ccccc2c1O[C@@H]1O[C@H](CO)[C@@H](O)[C@H](O)[C@H]1O
Activity: inactive

Compound: COc1ccc(CCO[C@@H]2O[C@H](COC(=O)/C=C/c3ccc(O)c(OC)c3)[C@@H](O)[C@H](O[C@@H]3O[C@@H](C)[C@H](O)[C@@H](O)[C@H]3O)[C@H]2O)cc1O
Activity: inactive

Compound: COC(=O)/C=C/c1[nH]c2ccccc2c1O[C@@H]1O[C@H](CO)[C@@H](O)[C@H](O)[C@H]1O
Activity: inactive

Compound: COc1ccc(CCO[C@@H]2O[C@H](CO)[C@@H](OC(=O)/C=C/c3ccc(O)c(O)c3)[C@H](O[C@@H]3O[C@@H](C)[C@H](O)[C@@H](O)[C@H]3O)[C@H]2O)cc1O
Activity: inactive

Compound: C[C@@H]1O[C@@H](O[C@@H]2[C@@H](O)[C@H](OCCc3ccc(O)c4c3[C@]3(Nc5ccccc5C3=O)[C@@]3(Nc5ccccc5C3=O)O4)O[C@H](CO)[C@H]2OC(=O)/C=C/c2ccc(O)c(O)c2)[C@H](O)[C@H](O)[C@H]1O
Activity: inactive

Compound: C[C@@H]1O[C@@H](O[C@@H]2[C@@H](O)[C@H](OCCc3ccc(O)c(O)c3)O[C@H](CO)[C@H]2OC(=O)/C=C/c2ccc(O)c(O)c2)[C@H](O)[C@H](O)[C@H]1O
Activity: inactive

Compound: C[C@@H]1O[C@@H](O[C@@H]2[C@@H](O)[C@H](OCCc3ccc(O)c4c3[C@@]3(Nc5ccccc5C3=O)[C@]3(Nc5ccccc5C3=O)O4)O[C@H](CO)[C@H]2OC(=O)/C=C/c2ccc(O)c(O)c2)[C@H](O)[C@H](O)[C@H]1O
Activity: inactive
